System: MCF7 complex spheroid growth, % test/control
Test: Anticancer human tumor MCF7 cell line growth inhibition [Asc];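 further: spheroids exposed to compounds for 7 days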;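 on viability, T/C: 100% = DMSO vehicle control wells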
Details: for IC50: curve of first compound; for viability, T/C: stronger effect = lower value
In short: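 Tumor cells were grown as multicellular spheroids with stromal HUVEC and mesenchymal stem cells and treated singly or in combination. Concentrations fell in half-log steps from the clinical Cmax, or from 10 microM where none was known.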

[1] = second compound 0.00316 µM, first compound 0.0316 µM
[2] = second compound 0.00316 µM, first compound 0.1 µM
[3] = second compound 0.00316 µM, first compound 0.316 µM
[4] = second compound 0.00316 µM, first compound 1 µM
[5] = second compound 0.00316 µM, first compound 3.16 µM
[6] = second compound 0.00316 µM, first compound 10 µM
[7] = second compound 0.01 µM, first compound 0.0316 µM
[8] = second compound 0.01 µM, first compound 0.1 µM
[9] = second compound 0.01 µM, first compound 0.316 µM
[10] = second compound 0.01 µM, first compound 1 µM
[11] = second compound 0.01 µM, first compound 3.16 µM
[12] = second compound 0.01 µM, first compound 10 µM
[13] = second compound 0.0316 µM, first compound 0.0316 µM
[14] = second compound 0.0316 µM, first compound 0.1 µM
[15] = second compound 0.0316 µM, first compound 0.316 µM
[16] = second compound 0.0316 µM, first compound 1 µM
[17] = second compound 0.0316 µM, first compound 3.16 µM
[18] = second compound 0.0316 µM, first compound 10 µM
[19] = second compound 0.1 µM, first compound 0.0316 µM
[20] = second compound 0.1 µM, first compound 0.1 µM
[21] = second compound 0.1 µM, first compound 0.316 µM
[22] = second compound 0.1 µM, first compound 1 µM
[23] = second compound 0.1 µM, first compound 3.16 µM
[24] = second compound 0.1 µM, first compound 10 µM
[25] = second compound 0.316 µM, first compound 0.0316 µM
[26] = second compound 0.316 µM, first compound 0.1 µM
[27] = second compound 0.316 µM, first compound 0.316 µM
[28] = second compound 0.316 µM, first compound 1 µM
[29] = second compound 0.316 µM, first compound 3.16 µM
[30] = second compound 0.316 µM, first compound 10 µM
[31] = second compound 1 µM, first compound 0.0316 µM
[32] = second compound 1 µM, first compound 0.1 µM
[33] = second compound 1 µM, first compound 0.316 µM
[34] = second compound 1 µM, first compound 1 µM
[35] = second compound 1 µM, first compound 3.16 µM
[36] = second compound 1 µM, first compound 10 µM
[37] = second compound 0.00316 µM, first compound 0.00949 µM
[38] = second compound 0.00316 µM, first compound 0.03 µM
[39] = second compound 0.00316 µM, first compound 0.0949 µM
[40] = second compound 0.00316 µM, first compound 0.3 µM
[41] = second compound 0.00316 µM, first compound 0.949 µM
[42] = second compound 0.00316 µM, first compound 3 µM
[43] = second compound 0.01 µM, first compound 0.00949 µM
[44] = second compound 0.01 µM, first compound 0.03 µM
[45] = second compound 0.01 µM, first compound 0.0949 µM
[46] = second compound 0.01 µM, first compound 0.3 µM
[47] = second compound 0.01 µM, first compound 0.949 µM
[48] = second compound 0.01 µM, first compound 3 µM
[49] = second compound 0.0316 µM, first compound 0.00949 µM
[50] = second compound 0.0316 µM, first compound 0.03 µM
[51] = second compound 0.0316 µM, first compound 0.0949 µM
[52] = second compound 0.0316 µM, first compound 0.3 µM
[53] = second compound 0.0316 µM, first compound 0.949 µM
[54] = second compound 0.0316 µM, first compound 3 µM
[55] = second compound 0.1 µM, first compound 0.00949 µM
[56] = second compound 0.1 µM, first compound 0.03 µM
[57] = second compound 0.1 µM, first compound 0.0949 µM
[58] = second compound 0.1 µM, first compound 0.3 µM
[59] = second compound 0.1 µM, first compound 0.949 µM
[60] = second compound 0.1 µM, first compound 3 µM
[61] = second compound 0.316 µM, first compound 0.00949 µM
[62] = second compound 0.316 µM, first compound 0.03 µM
[63] = second compound 0.316 µM, first compound 0.0949 µM
[64] = second compound 0.316 µM, first compound 0.3 µM
[65] = second compound 0.316 µM, first compound 0.949 µM
[66] = second compound 0.316 µM, first compound 3 µM
[67] = second compound 1 µM, first compound 0.00949 µM
[68] = second compound 1 µM, first compound 0.03 µM
[69] = second compound 1 µM, first compound 0.0949 µM
[70] = second compound 1 µM, first compound 0.3 µM
[71] = second compound 1 µM, first compound 0.949 µM
[72] = second compound 1 µM, first compound 3 µM

C#Cc1c(F)ccc2cc(O)cc(-c3ncc4c(N5CC6CCC(C5)N6)nc(OCC56CCCN5CC(F)C6)nc4c3F)c12 (stereo not drawn) + CNC(C)C(=O)NC1CN(S(=O)(=O)c2cccc(S(=O)(=O)N3CCC4CCC(C(=O)NC(c5ccccc5)c5ccccc5)N4C(=O)C(NC(=O)C(C)NC)C3)c2)CCC2CCC(C(=O)NC(c3ccccc3)c3ccccc3)N2C1=O
IC50 (second compound 0.00316 µM): < 31.6 nM
IC50 (second compound 0.01 µM): < 31.6 nM
IC50 (second compound 0.0316 µM): < 31.6 nM
IC50 (second compound 0.1 µM): < 31.6 nM
IC50 (second compound 0.316 µM): < 31.6 nM
IC50 (second compound 1 µM): < 31.6 nM
viability, T/C [1]: 41.9%
viability, T/C [2]: 44.3%
viability, T/C [3]: 16.3%
viability, T/C [4]: 18.9%
viability, T/C [5]: 11.3%
viability, T/C [6]: 2.37%
viability, T/C [7]: 19%
viability, T/C [8]: 12.6%
viability, T/C [9]: 12.2%
viability, T/C [10]: 11.8%
viability, T/C [11]: 9.39%
viability, T/C [12]: 4.11%
viability, T/C [13]: 11.6%
viability, T/C [14]: 12.4%
viability, T/C [15]: 10.9%
viability, T/C [16]: 11.4%
viability, T/C [17]: 9.52%
viability, T/C [18]: 3.7%
viability, T/C [19]: 12.5%
viability, T/C [20]: 10.4%
viability, T/C [21]: 11.9%
viability, T/C [22]: 11.2%
viability, T/C [23]: 11.4%
viability, T/C [24]: 3.67%
viability, T/C [25]: 12.8%
viability, T/C [26]: 12.9%
viability, T/C [27]: 12.2%
viability, T/C [28]: 10.8%
viability, T/C [29]: 11.4%
viability, T/C [30]: 2.21%
viability, T/C [31]: 13.9%
viability, T/C [32]: 12.2%
viability, T/C [33]: 13%
viability, T/C [34]: 10.6%
viability, T/C [35]: 8.64%
viability, T/C [36]: 1.87%

C=C(F)C(=O)N1CCN(c2nc(OCC3CCCN3C)nc3c2CCN(c2cccc4cccc(Cl)c24)C3)CC1CC#N (stereo not drawn) + CNC(C)C(=O)NC1CN(S(=O)(=O)c2cccc(S(=O)(=O)N3CCC4CCC(C(=O)NC(c5ccccc5)c5ccccc5)N4C(=O)C(NC(=O)C(C)NC)C3)c2)CCC2CCC(C(=O)NC(c3ccccc3)c3ccccc3)N2C1=O
IC50 (second compound 0.00316 µM): < 31.6 nM
IC50 (second compound 0.01 µM): < 31.6 nM
IC50 (second compound 0.0316 µM): < 31.6 nM
IC50 (second compound 0.1 µM): < 31.6 nM
IC50 (second compound 0.316 µM): < 31.6 nM
IC50 (second compound 1 µM): < 31.6 nM
viability, T/C [1]: 47.7%
viability, T/C [2]: 38.8%
viability, T/C [3]: 29.2%
viability, T/C [4]: 15.9%
viability, T/C [5]: 1.96%
viability, T/C [6]: 0.09%
viability, T/C [7]: 14%
viability, T/C [8]: 12%
viability, T/C [9]: 15%
viability, T/C [10]: 9.45%
viability, T/C [11]: 2.95%
viability, T/C [12]: 0.08%
viability, T/C [13]: 13.4%
viability, T/C [14]: 9.36%
viability, T/C [15]: 10.1%
viability, T/C [16]: 7.62%
viability, T/C [17]: 2.55%
viability, T/C [18]: 0.08%
viability, T/C [19]: 12%
viability, T/C [20]: 10.8%
viability, T/C [21]: 11%
viability, T/C [22]: 7.97%
viability, T/C [23]: 1.68%
viability, T/C [24]: 0.08%
viability, T/C [25]: 12%
viability, T/C [26]: 12%
viability, T/C [27]: 11.9%
viability, T/C [28]: 7.65%
viability, T/C [29]: 2.03%
viability, T/C [30]: 0.1%
viability, T/C [31]: 12.6%
viability, T/C [32]: 10.9%
viability, T/C [33]: 10.3%
viability, T/C [34]: 7.96%
viability, T/C [35]: 1.41%
viability, T/C [36]: 0.18%

CCN1C(C(=O)NC23CCC(C(=O)O)(CC2)CC3)C(c2cccc(Cl)c2F)C2(C(=O)Nc3cc(Cl)ccc32)C12CCCCC2 (stereo not drawn) + CNC(C)C(=O)NC1CN(S(=O)(=O)c2cccc(S(=O)(=O)N3CCC4CCC(C(=O)NC(c5ccccc5)c5ccccc5)N4C(=O)C(NC(=O)C(C)NC)C3)c2)CCC2CCC(C(=O)NC(c3ccccc3)c3ccccc3)N2C1=O
IC50 (second compound 0.00316 µM): < 9.49 nM
IC50 (second compound 0.01 µM): < 9.49 nM
IC50 (second compound 0.0316 µM): < 9.49 nM
IC50 (second compound 0.1 µM): < 9.49 nM
IC50 (second compound 0.316 µM): < 9.49 nM
IC50 (second compound 1 µM): < 9.49 nM
viability, T/C [37]: 40.9%
viability, T/C [38]: 14.3%
viability, T/C [39]: 10.8%
viability, T/C [40]: 11%
viability, T/C [41]: 8.86%
viability, T/C [42]: 5.04%
viability, T/C [43]: 11.4%
viability, T/C [44]: 8.24%
viability, T/C [45]: 8.54%
viability, T/C [46]: 5.55%
viability, T/C [47]: 5.82%
viability, T/C [48]: 5.04%
viability, T/C [49]: 11.9%
viability, T/C [50]: 8.85%
viability, T/C [51]: 5.62%
viability, T/C [52]: 5.69%
viability, T/C [53]: 4.2%
viability, T/C [54]: 5.94%
viability, T/C [55]: 12%
viability, T/C [56]: 10.7%
viability, T/C [57]: 6.73%
viability, T/C [58]: 6.23%
viability, T/C [59]: 4.67%
viability, T/C [60]: 5.57%
viability, T/C [61]: 12.5%
viability, T/C [62]: 10.7%
viability, T/C [63]: 7.04%
viability, T/C [64]: 5.56%
viability, T/C [65]: 5.97%
viability, T/C [66]: 6.29%
viability, T/C [67]: 11.2%
viability, T/C [68]: 12.5%
viability, T/C [69]: 9.54%
viability, T/C [70]: 5.59%
viability, T/C [71]: 4.74%
viability, T/C [72]: 6.71%

Cc1nc(N2CCC3(CC2)COC(C)C3N)c(CO)nc1Sc1ccnc(N)c1Cl (stereo not drawn) + CNC(C)C(=O)NC1CN(S(=O)(=O)c2cccc(S(=O)(=O)N3CCC4CCC(C(=O)NC(c5ccccc5)c5ccccc5)N4C(=O)C(NC(=O)C(C)NC)C3)c2)CCC2CCC(C(=O)NC(c3ccccc3)c3ccccc3)N2C1=O
IC50 (second compound 0.00316 µM): < 9.49 nM
IC50 (second compound 0.01 µM): < 9.49 nM
IC50 (second compound 0.0316 µM): < 9.49 nM
IC50 (second compound 0.1 µM): < 9.49 nM
IC50 (second compound 0.316 µM): < 9.49 nM
IC50 (second compound 1 µM): < 9.49 nM
viability, T/C [37]: 26.7%
viability, T/C [38]: 31.8%
viability, T/C [39]: 19.9%
viability, T/C [40]: 17.6%
viability, T/C [41]: 10.6%
viability, T/C [42]: 10.9%
viability, T/C [43]: 15.9%
viability, T/C [44]: 11.2%
viability, T/C [45]: 10.3%
viability, T/C [46]: 13%
viability, T/C [47]: 11.4%
viability, T/C [48]: 11.1%
viability, T/C [49]: 12.7%
viability, T/C [50]: 10.7%
viability, T/C [51]: 12.2%
viability, T/C [52]: 11.9%
viability, T/C [53]: 11.3%
viability, T/C [54]: 9.37%
viability, T/C [55]: 10.1%
viability, T/C [56]: 12.7%
viability, T/C [57]: 11.3%
viability, T/C [58]: 10.4%
viability, T/C [59]: 10.6%
viability, T/C [60]: 10.1%
viability, T/C [61]: 13.9%
viability, T/C [62]: 12.2%
viability, T/C [63]: 11.5%
viability, T/C [64]: 11.6%
viability, T/C [65]: 12.3%
viability, T/C [66]: 12%
viability, T/C [67]: 13.6%
viability, T/C [68]: 12.7%
viability, T/C [69]: 14.2%
viability, T/C [70]: 11.9%
viability, T/C [71]: 12.6%
viability, T/C [72]: 11.9%

Reference: PubChem BioAssay AID1963445 (Molecular Pharmacology Branch, DTP, NCI, 2024)
